Test system: imiquimod-induced psoriasis
Assay: Imiquimod-induced psoriasis (Th17 inflammation) model in mice, topical treatment once daily D7-D13: PASI, modified PASI, body weight, use of enrichment, TEWL
Assay type: in vivo
Parameters: key to Mean score use enrichment: 0 = no use of dental rolls to 4 = use of all 4; key to PASI Mean score values: sum of erythema, induration, peeling scores, each 0-3 (0 = none)
Experimental: Thirty-six (36) female Balb/c mice are weighed and randomly divided into 9 groups (n=4) according to body weight on D1. For mice of native group 1 and tolerance groups 8 and 9, no induction of psoriasis is performed between D1 and D13. Psoriasis is induced in groups 2 to 7 by once daily topical application for 13 days (from day 1 to day 13) of 65 mg of Aldara™ cream (5.0% imiquimod) onto the shaved and epilated back of mice. Before the first treatment, a second randomization of mice of the 6 imiquimod-induced psoriasis groups is performed according to the severity of psoriasis (PASI), and also the body weight of mice. Starting on day 7 and until day 13, 100 mg of test formulations […] and 65 mg of vehicle (groups 1 and […]) are topically administered once daily for 7 consecutive days onto the shaved back skin of mice. Several measurements are taken during treatment period from day 7 to day 14: psoriasis index (PASI), body weight, use of enrichment and mortality. At the end of treatment period, TEWL is assessed, and blood and skin samples are collected. Histological analysis of skin samples is used for microscopic scoring of psoriasis and the determination of the thickness of parakeratosis and epidermis and blood analysis is used for assessing the level of proinflammatory biomarkers (cytokines assays). The effect of treatment of psoriasis induced mice with BETi formulations at the four dose levels are compared with Dermoval® cream containing 0.05% clobetasol propionate (reference) and vehicle (positive control) and also with healthy mice treated with vehicle (negative control).
PASI scoring takes into account the following 3 parameters: the presence of erythema on the skin, induration of the skin (thickening) and peeling of the skin at the area of the induction of psoriasis.
The presence of erythema on the skin at the area of induction of psoriasis with the following scoring grid: • 0=no or no more erythema on the skin, • 1=weak erythema on the skin, • 2=moderate erythema on the skin, • 3=important erythema on the skin.
The presence of induration of the skin at the area of induction of psoriasis with the following scoring grid: • 0=no or no more induration of the skin, • 1=weak induration of the skin, • 2=moderate induration of the skin, • 3=important induration of the skin.
The presence of peeling of the skin at the area of induction of psoriasis with the following scoring grid: • 0=no or no more dryness/peeling of the skin, • 1=weak dryness/peeling of the skin, • 2=moderate dryness/peeling of the skin, • 3=important dryness/peeling of the skin.
The sum of the mean scores of these 3 parameters result in the mean PASI score.
One of the issues with a steroid is that it causes skin thinning and continues to have an effect on no longer inflamed skin and the model set up and measurements above are not designed to reflect this negative effect. Therefore, a modified PASI (mPASI) is calculated in the same the manner as mean PASI score but excludes the scoring for induration (thickening of the skin).
Mice are weighed three times during the week of D1 to D7, and then daily during the week of D7 to D13, as well as on the day D14 when they are sacrificed. It should be noted that a characteristic body weight loss of mice is observed after the start of the induction of psoriasis, mainly during the first days following it. The body weight loss can reach between 10 to 15%.
For the duration of the experiment, dental rolls are used as enrichment and placed in each cage and replaced twice. Between D1 and D7, the number of dental rolls used by animals are determined twice in the morning, and are determined daily during D7 to D14, at the time of PASI or the tolerance assessment. The use of dental rolls is scored from 0=no use of dental rolls to 4=use of the 4 dental rolls. In the case where only half of a dental roll is used, a score of 0.5 is assigned. […]

## Cn1cc(-c2cccc(O)c2Oc2ccccc2)c2cc[nH]c2c1=O [BETi1]
Table 1C, imiquimod-induced mice, treatment day 0, listed as BETi1 0.001%
  Change in Modified PASI Mean score values: 4.25
Table 1C, imiquimod-induced mice, treatment day 0, listed as BETi1 0.01%
  Change in Modified PASI Mean score values: 4.375
Table 1C, imiquimod-induced mice, treatment day 0, listed as BETi1 0.1%
  Change in Modified PASI Mean score values: 4.375
Table 1C, imiquimod-induced mice, treatment day 1, listed as BETi1 0.001%
  Change in Modified PASI Mean score values: 5.375
Table 1C, imiquimod-induced mice, treatment day 1, listed as BETi1 0.01%
  Change in Modified PASI Mean score values: 4
Table 1C, imiquimod-induced mice, treatment day 1, listed as BETi1 0.1%
  Change in Modified PASI Mean score values: 4.375
Table 1C, imiquimod-induced mice, treatment day 2, listed as BETi1 0.001%
  Change in Modified PASI Mean score values: 4.75
Table 1C, imiquimod-induced mice, treatment day 2, listed as BETi1 0.01%
  Change in Modified PASI Mean score values: 2.875
Table 1C, imiquimod-induced mice, treatment day 2, listed as BETi1 0.1%
  Change in Modified PASI Mean score values: 3.125
Table 1C, imiquimod-induced mice, treatment day 3, listed as BETi1 0.001%
  Change in Modified PASI Mean score values: 4.25
Table 1C, imiquimod-induced mice, treatment day 3, listed as BETi1 0.01%
  Change in Modified PASI Mean score values: 2.5
Table 1C, imiquimod-induced mice, treatment day 3, listed as BETi1 0.1%
  Change in Modified PASI Mean score values: 2
Table 1C, imiquimod-induced mice, treatment day 4, listed as BETi1 0.001%
  Change in Modified PASI Mean score values: 4
Table 1C, imiquimod-induced mice, treatment day 4, listed as BETi1 0.01%
  Change in Modified PASI Mean score values: 2.125
Table 1C, imiquimod-induced mice, treatment day 4, listed as BETi1 0.1%
  Change in Modified PASI Mean score values: 0.75
Table 1C, imiquimod-induced mice, treatment day 5, listed as BETi1 0.001%
  Change in Modified PASI Mean score values: 3.375
Table 1C, imiquimod-induced mice, treatment day 5, listed as BETi1 0.01%
  Change in Modified PASI Mean score values: 1
Table 1C, imiquimod-induced mice, treatment day 5, listed as BETi1 0.1%
  Change in Modified PASI Mean score values: 0.375
Table 1C, imiquimod-induced mice, treatment day 6, listed as BETi1 0.001%
  Change in Modified PASI Mean score values: 3
Table 1C, imiquimod-induced mice, treatment day 6, listed as BETi1 0.01%
  Change in Modified PASI Mean score values: 1.25
Table 1C, imiquimod-induced mice, treatment day 6, listed as BETi1 0.1%
  Change in Modified PASI Mean score values: 0.25
Table 1C, imiquimod-induced mice, treatment day 7, listed as BETi1 0.001%
  Change in Modified PASI Mean score values: 3
Table 1C, imiquimod-induced mice, treatment day 7, listed as BETi1 0.01%
  Change in Modified PASI Mean score values: 1
Table 1C, imiquimod-induced mice, treatment day 7, listed as BETi1 0.1%
  Change in Modified PASI Mean score values: 0.25
Table 1D, relative to day 0 = 100, treatment day 0
  Change in Modified PASI Mean score values: 100
Table 1D, relative to day 0 = 100, treatment day 1, listed as BETi1 0.001%
  Change in Modified PASI Mean score values: 126.47
Table 1D, relative to day 0 = 100, treatment day 1, listed as BETi1 0.01%
  Change in Modified PASI Mean score values: 91.43
Table 1D, relative to day 0 = 100, treatment day 1, listed as BETi1 0.1%
  Change in Modified PASI Mean score values: 100
Table 1D, relative to day 0 = 100, treatment day 2, listed as BETi1 0.001%
  Change in Modified PASI Mean score values: 111.76
Table 1D, relative to day 0 = 100, treatment day 2, listed as BETi1 0.01%
  Change in Modified PASI Mean score values: 65.71
Table 1D, relative to day 0 = 100, treatment day 2, listed as BETi1 0.1%
  Change in Modified PASI Mean score values: 71.43
Table 1D, relative to day 0 = 100, treatment day 3, listed as BETi1 0.001%
  Change in Modified PASI Mean score values: 100
Table 1D, relative to day 0 = 100, treatment day 3, listed as BETi1 0.01%
  Change in Modified PASI Mean score values: 57.14
Table 1D, relative to day 0 = 100, treatment day 3, listed as BETi1 0.1%
  Change in Modified PASI Mean score values: 45.72
Table 1D, relative to day 0 = 100, treatment day 4, listed as BETi1 0.001%
  Change in Modified PASI Mean score values: 94.12
Table 1D, relative to day 0 = 100, treatment day 4, listed as BETi1 0.01%
  Change in Modified PASI Mean score values: 48.57
Table 1D, relative to day 0 = 100, treatment day 4, listed as BETi1 0.1%
  Change in Modified PASI Mean score values: 17.142
Table 1D, relative to day 0 = 100, treatment day 5, listed as BETi1 0.001%
  Change in Modified PASI Mean score values: 79.41
Table 1D, relative to day 0 = 100, treatment day 5, listed as BETi1 0.01%
  Change in Modified PASI Mean score values: 22.86
Table 1D, relative to day 0 = 100, treatment day 5, listed as BETi1 0.1%
  Change in Modified PASI Mean score values: 8.57
Table 1D, relative to day 0 = 100, treatment day 6, listed as BETi1 0.001%
  Change in Modified PASI Mean score values: 70.59
Table 1D, relative to day 0 = 100, treatment day 6, listed as BETi1 0.01%
  Change in Modified PASI Mean score values: 28.57
Table 1D, relative to day 0 = 100, treatment day 6, listed as BETi1 0.1%
  Change in Modified PASI Mean score values: 5.71
Table 1D, relative to day 0 = 100, treatment day 7, listed as BETi1 0.001%
  Change in Modified PASI Mean score values: 70.59
Table 1D, relative to day 0 = 100, treatment day 7, listed as BETi1 0.01%
  Change in Modified PASI Mean score values: 22.86
Table 1D, relative to day 0 = 100, treatment day 7, listed as BETi1 0.1%
  Change in Modified PASI Mean score values: 5.71
imiquimod-induced mice, Before D 1, listed as BETi 0.001%
  Mean score use enrichment: 4.00
imiquimod-induced mice, Before D 1, listed as BETi 0.01%
  Mean score use enrichment: 4.00
imiquimod-induced mice, Before D 1, listed as BETi 0.1%
  Mean score use enrichment: 4.00
imiquimod-induced mice, Before D 1, listed as BETi 1.0%
  Mean score use enrichment: 3.75
imiquimod-induced mice, D 1
  Modified PASI Mean score values: 0.00
  PASI Mean score values: 0.00
imiquimod-induced mice, D 1-D 8, listed as BETi 0.001%
  Mean score use enrichment: 1.79
imiquimod-induced mice, D 1-D 8, listed as BETi 0.01%
  Mean score use enrichment: 1.61
imiquimod-induced mice, D 1-D 8, listed as BETi 0.1%
  Mean score use enrichment: 1.54
imiquimod-induced mice, D 1-D 8, listed as BETi 1.0%
  Mean score use enrichment: 2.56
imiquimod-induced mice, D 1, listed as BETi1 1.0%
  Mean body weights: 18.11

— patent US20250339409A1, “USES OF PAN BET INHIBITORS” (VYNE THERAPEUTICS INC., priority 2021, published 2025)
